In patent US8609590B2, “Synergistic combination of flumetsulam with thiabendazole” (Dow Global Technologies LLC, priority 2010, dated 2013):

Key:
Type in all cases: cell-based
[1] = system: Aa + Tv + An + Pf + Ap + Ch; assay: Fungal efficacy testing, modified ASTM 5590, paint film (Diclosulam study, single fungal pool); settings: for % inhibition: at the total conc given for the same sample; for Total conc: end-point concentration in paint used for SI
Protocol: (§1) Sample preparation: A single or blend of biocides was post added into white acrylic latex paint free of biocides to give a maximum total active ingredient/s concentration tested. This paint was then diluted with a biocide free acrylic latex paint to give targeted concentrations for the testing. Depending on the type of biocide blends tested, the total biocides concentrations varies from 200 to 5000 ppm. After biocides addition or dilution, each sample was hand mixed for at least a minute until uniformity is achieved. Each of the paint samples as well as a control sample (containing no biocide) were used to prepare films on black plastic-vinyl chloride/acetate copolymer panels (LENETA, Mahwah, N.J.) using a 3 mil (0.0762 mm) bird bar applicator. The panels were thoroughly dried for at least 2 days avoiding direct exposure to sunlight. Square discs (0.5 inch; 1.27 cm^2) were cut out from each panel and were used as the substrate for fungal and algal efficacy tests. This sample size allowed for an agar border when the sample disc was placed into the well of the test plate. Each sample was tested in duplicate
(§2) The appropriate media (BOLD'S 3N for Chlorophytes, BG-11 for Cyanobacteria, and PDA for fungi) were used to support microbial growth. The test plates were maintained at room temp (25° C.-26° C.), in a cycled light-dark environment, for four weeks for algae. Plates for fungal challenge tests were maintained at 30 C for four weeks. At the end of the incubation period the samples were scored for percent area covered by visible microbial growth.
ASTM 5590 is a standard accelerated test method for determining resistance of various coatings (including paints) to fungal defacement. To accommodate for high-throughput screening, this method was scaled down from petri plates to 6-well plates. To set up the test, an agar plug was placed at the bottom of each well of the sterile 6-well plate. A single coupon was placed with a pair of sterile forceps at the center of the agar plug (on top) with the painted surface facing upwards. Fungal inoculums were prepared by mixing equal concentrations (1×10^6 cfu/ml) and equal volumes (depending on number of samples to be tested) of like growing organisms. For Flumetsulam+various IT synergy study, three pools of mixed fungi were prepared as the test inoculum. Cladosporium herbarum was mixed with Aureobasidium pullulans; Aspergillus niger was mixed with Penicillium funiculosum and Alternaria alternata was mixed with Trichoderma viride. For Diclosulam+various IT synergy study, all above fungi were mixed as a single pool. […] The total percent area covered was evaluated and recorded at the end of each week after the 2nd week and recorded in increments of 5%.
(§3) The SI is calculated based on F. C. […]

[2] = system: Cp + To + Ta + Cs + Ck + Nc; assay: Algal efficacy testing, modified ASTM 5589, paint film (Diclosulam study); settings: for % inhibition: at the total conc given for the same sample; for Total conc: end-point concentration in paint used for SI
Protocol: as §1, §2
(§4) ASTM 5589 is a standard accelerated test method for determining resistance of various coatings (including paints) to algal defacement. To accommodate for high-throughput screening, this method was scaled down from petri plates to 6-well plates. A single coupon was placed with a pair of sterile forceps at the center of the agar plug (on top) with the painted surface facing upwards. Algal inoculums were prepared by mixing equal concentrations (1×10^6 cfu/ml) and equal volumes (depending on number of samples to be inoculated) of like growing organisms.
(§5) In Diclosulam+various IT synergy study, only two pools of mixed algae were prepared; Gloeocapsa sp. and Oscillatoria sp. grown on BG-11 media and Chlorella sp., Chlorella kessleri, Nostoc commune, Trentepohlia aurea, Tretepohlia odorata, and Calotrix parientina grown on Bold media
Each well that contains a tested coupon was inoculated with 400 μl of organism mixture (1×10^6 cfu/ml) making sure that the whole surface (paint film as well as the agar surrounding it) was evenly covered. […] The total area covered was evaluated at the end of each week according to percent area covered in 5% increments.
as §3

[3] = system: Gloeocapsa sp. and Oscillatoria sp. (Gs + Os); assay: Algal efficacy testing, modified ASTM 5589, paint film; settings: for % inhibition: at the total conc given for the same sample; for Total conc: end-point concentration in paint used for SI
Protocol: as §1, §2, §4
(§6) In Flumetsulam+various IT synergy study, three pool of mixed algae were prepared as the test inoculum, Gloeocapsa sp. and Oscillatoria sp. a mix of cyanobacteria grown on BG-11 media; Chlorella sp., Chlorella kessleri, and Nostoc commune are unicellular chlorphytes that were mixed and grown on Bold media; Trentepohlia aurea, Tretepohlia odorata, and Calotrix parientina are filamentous algae that were mixed and grown on Bold media.
as §5
(§7) Each well that contains a tested coupon was inoculated with 400 μl of organism mixture (1×10^6 cfu/ml) making sure that the whole surface (paint film as well as the agar surrounding it) was evenly covered. The plates were incubated at room temp (25° C.-26° C.) with cyclic exposure to light (OTT-Lite model # OTL4012P, 40 Watt, 26 KLumen) and dark phases, for a period of four weeks. The total area covered was evaluated at the end of each week according to percent area covered in 5% increments.
(§8) The SI is calculated based on F. C. Kull et.

[4] = system: Chlorella sp., Chlorella kessleri, and Nostoc commune (Cs + Ck + Nc); assay: Algal efficacy testing, modified ASTM 5589, paint film (Flumetsulam study); settings: for % inhibition: at the total conc given for the same sample; for Total conc: end-point concentration in paint used for SI, four weeks
Protocol: as §1, §2, §4, §6, §7, §8

[5] = system: Trentepohlia aurea, Tretepohlia odorata, and Calotrix parientina (Cp + To + Ta); assay: as above; settings: for % inhibition: at the total conc given for the same sample; for Total conc: end-point concentration in paint used for SI, four weeks
Protocol: as §1, §2, §4, §6, §7, §8

[6] = system: Alternaria alternata mixed with Trichoderma viride (AaTv); assay: Fungal efficacy testing, modified ASTM 5590, paint film (Flumetsulam study); settings: for % inhibition: at the total conc given for the same sample; for Total conc: end-point concentration in paint used for SI, four weeks, 30 C
Protocol: as §1, §2
(§9) ASTM 5590 is a standard accelerated test method for determining resistance of various coatings (including paints) to fungal defacement. To accommodate for high-throughput screening, this method was scaled down from petri plates to 6-well plates. To set up the test, an agar plug was placed at the bottom of each well of the sterile 6-well plate. A single coupon was placed with a pair of sterile forceps at the center of the agar plug (on top) with the painted surface facing upwards. Fungal inoculums were prepared by mixing equal concentrations (1×10^6 cfu/ml) and equal volumes (depending on number of samples to be tested) of like growing organisms. For Flumetsulam+various IT synergy study, three pools of mixed fungi were prepared as the test inoculum. Cladosporium herbarum was mixed with Aureobasidium pullulans; Aspergillus niger was mixed with Penicillium funiculosum and Alternaria alternata was mixed with Trichoderma viride. For Diclosulam+various IT synergy study, all above fungi were mixed as a single pool. Each well was inoculated with 400 μl of organism mixture (1×10^6 cfu/ml) making sure that the whole surface (paint film as well as the agar surrounding it) was evenly covered. The plates were incubated at 30° C. in presence of moisture, for a period of four weeks. The total percent area covered was evaluated and recorded at the end of each week after the 2nd week and recorded in increments of 5%.
as §8

[7] = system: Aspergillus niger mixed with Penicillium funiculosum (AnPf); assay: as above; settings: for % inhibition: at the total conc given for the same sample; for Total conc: end-point concentration in paint used for SI, four weeks, 30 C
Protocol: as §1, §2, §9, §8

[8] = system: Cladosporium herbarum mixed with Aureobasidium pullulans (ApCh); assay: as above; settings: for % inhibition: at the total conc given for the same sample; for Total conc: end-point concentration in paint used for SI, four weeks, 30 C
Protocol: as §1, §2, §9, §8

| Compound | % inhibition [1] | Total conc [1] | % inhibition [2] | Total conc [2] | % inhibition ([3]; Diclosulam study) | Total conc ([3]; Diclosulam study) | % inhibition [4] | Total conc [4] | % inhibition [5] | Total conc [5] | % inhibition [6] | Total conc [6] | % inhibition [7] | Total conc [7] | % inhibition [8] | Total conc [8] | % inhibition ([3]; Flumetsulam study) | Total conc ([3]; Flumetsulam study, four weeks) |
| --- | --- | --- | --- | --- | --- | --- | --- | --- | --- | --- | --- | --- | --- | --- | --- | --- | --- | --- |
| CCOc1nc(F)cc2nc(S(=O)(=O)Nc3c(Cl)cccc3Cl)nn12 [Diclosulam, N-(2,6-dichlorophenyl)-5-ethoxy-7-fluoro[1,2,4]triazolo[1,5-c]pyrimidine-2-sulfonamide] | 0% | 3500 ppm | 100% | 1750 ppm | 90% | 875 ppm |  |  |  |  |  |  |  |  |  |  |  |  |
| Cc1ccn2nc(S(=O)(=O)Nc3c(F)cccc3F)nc2n1 [Flumetsulam, N-(2,6-difluorophenyl)-5-methyl[1,2,4]triazolo[1,5-a]pyrimidine-2-sulfonamide] |  |  |  |  |  |  | 100% | 2625 ppm | 75% | 1750 ppm | 0% | 3500 ppm | 90% | 1750 ppm | 50% | 3500 ppm | 90% | 2625 ppm |
| c1ccc2[nH]c(-c3cscn3)nc2c1 [TBZ, thiabendazole] | 60% | 625 ppm | 100% | 1250 ppm | 85% | 1250 ppm | 100% | 2500 ppm | 90% | 3750 ppm | 100% | 625 ppm | 100% | 625 ppm | 100% | 625 ppm | 85% | 3750 ppm |
